In patent publication US10781224B2, “Bis(oxymethyl)phosphinic acid and biogenic metal salts thereof as regulators of plant growth and development” (priority 2016, dated 2020):

Experiments:
[1] = test system: rice (Diamant variety); test: Rice seed treatment with BHMPA salts: germination energy and germination rate; type: in vivo
Method in brief: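 Corn, winter wheat and rice seeds (50 per dish, on filter paper) were soaked for 1 h in BHMPA or its metal salts at 1·10^−6-1·10^−12%, with water as control. Germination energy was read on day 4 and germination rate on day 8 for wheat and day 7 for rice and corn, following GOST 12038-84, as the mean of four replicates.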

[2] = test system: rice (Diamant variety); test: Rice seed treatment with BHMPA salts: germinating power; type: in vivo
Method in brief: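 Seeds (50 per Petri dish on two layers of filter paper) soaked 1 h in BHMPA or its Ca, Mg, Na, Co, Mn, Cu or Zn salts at 1·10^−6-1·10^−12%, with water controls. Germination energy read on day 4, germination on day 8 (wheat) or day 7 (rice, corn), as % means of four replicates. Germinating power taken as root and sprout length plus wet and dry mass per 100 seedlings.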

[3] = rice seed treatment, solution 1 · 10^−11%
[4] = seed treatment, concentration 1 · 10^−6%
[5] = seed treatment, concentration 1 · 10^−7%
[6] = seed treatment, concentration 1 · 10^−8%
[7] = seed treatment, concentration 1 · 10^−9%
[8] = seed treatment, concentration 1 · 10^−10%
[9] = seed treatment, concentration 1 · 10^−11%
[10] = seed treatment, concentration 1 · 10^−12%
[11] = rice seed treatment, comparison with Melaphen (Table XXXIII), solution 1 · 10^−11%
[12] = rice seeds, solution concentration 1 · 10^−6%
[13] = rice seeds, solution concentration 1 · 10^−7%
[14] = rice seeds, solution concentration 1 · 10^−8%
[15] = rice seeds, solution concentration 1 · 10^−9%
[16] = rice seeds, solution concentration 1 · 10^−10%
[17] = rice seeds, solution concentration 1 · 10^−11%
[18] = rice seeds, solution concentration 1 · 10^−12%
[19] = rice, vs control, 1·10^−11% solution

How did the “Germination energy, %” value [1, 3] turn out when `O=P([O-])(CO)CO.[Na+]` [Na-salt, Sodium BHMPA Salt] was run?
The value was 85.0%.

And the “Germination rate, %” value [1, 3]?
The value was 92.0%.

And the Germination energy ([1]; rice, 1·10^−11% solution)?
The Germination energy was 84.0%.

And the Germination rate ([1]; rice, 1·10^−11% solution)?
Its Germination rate is 90.3%.

And the Germination energy [1, 4]?
Its Germination energy is 74.7%.

And the Germination rate [1, 4]?
Its Germination rate is 80.3%.

And the Germination energy [1, 5]?
Its Germination energy is 76.7%.

What about the Germination rate [1, 5] of the same molecule?
Its Germination rate is 82.8%.

What about the Germination energy [1, 6] of the same molecule?
Its Germination energy is 78.3%.

What about the Germination rate [1, 6] of the same molecule?
Its Germination rate is 84.0%.

What about the Germination energy [1, 7] of the same molecule?
Its Germination energy is 80.0%.

And the Germination rate [1, 7]?
The Germination rate was 86.3%.

And the Germination energy [1, 8]?
Its Germination energy is 82.3%.

What about the Germination rate [1, 8] of the same molecule?
The Germination rate was 88.0%.

What about the Germination energy [1, 9] of the same molecule?
Its Germination energy is 84.0%.

And the Germination rate [1, 9]?
The Germination rate was 90.3%.

And the Germination energy [1, 10]?
The Germination energy was 79.0%.

What about the Germination rate [1, 10] of the same molecule?
The Germination rate was 85.3%.

What about the “optimum concentration for treating rice seeds before sowing” value ([2]; rice) of the same molecule?
Its value is 1·10^−11%.

What about the “Length, root” value [2, 11] of the same molecule?
Its value is 5.9 cm.

What about the “Length, root, + % to control” value [2, 11] of the same molecule?
The value was 23%.

What about the “Length, sprout” value [2, 11] of the same molecule?
The value was 3.4 cm.

And the “Length, sprout, + % to control” value [2, 11]?
The value was 46%.

What about the “Mass, dry, root” value [2, 11] of the same molecule?
Its value is 0.22 g/100 plantlings.

What about the “Mass, dry, root, + % to control” value [2, 11] of the same molecule?
Its value is 5%.

And the “Mass, dry, sprout” value [2, 11]?
Its value is 0.26 g/100 plantlings.

What about the “Mass, dry, sprout, + % to control” value [2, 11] of the same molecule?
The value was 24%.

And the “Mass, wet, root” value [2, 11]?
Its value is 1.31 g/100 plantlings.

And the “Mass, wet, root, + % to control” value [2, 11]?
Its value is 34%.

What about the “Mass, wet, sprout” value [2, 11] of the same molecule?
Its value is 2.22 g/100 plantlings.

What about the “Mass, wet, sprout, + % to control” value [2, 11] of the same molecule?
The value was 47%.

What about the “Length, root” value [2, 12] of the same molecule?
The value was 5.4 cm.

What about the “Length, root, + % to control” value [2, 12] of the same molecule?
Its value is 4%.

What about the “Length, sprout” value [2, 12] of the same molecule?
The value was 2.3 cm.

What about the “Length, sprout, + % to control” value [2, 12] of the same molecule?
The value was 9.5%.

And the “Mass, dry, root” value [2, 12]?
The value was 0.21 g/100 plantlings.

And the “Mass, dry, root, + % to control” value [2, 12]?
The value was 5%.

And the “Mass, dry, sprout” value [2, 12]?
The value was 0.28 g/100 plantlings.

What about the “Mass, dry, sprout, + % to control” value [2, 12] of the same molecule?
The value was 8%.

What about the “Mass, wet, root” value [2, 12] of the same molecule?
Its value is 1.06 g/100 plantlings.

And the “Mass, wet, root, + % to control” value [2, 12]?
The value was 16.5%.

What about the “Mass, wet, sprout” value [2, 12] of the same molecule?
The value was 1.73 g/100 plantlings.

What about the “Mass, wet, sprout, + % to control” value [2, 12] of the same molecule?
Its value is 5.5%.

And the “Length, root” value [2, 13]?
The value was 5.6 cm.

And the “Length, root, + % to control” value [2, 13]?
Its value is 8%.

What about the “Length, sprout” value [2, 13] of the same molecule?
The value was 2.4 cm.

What about the “Length, sprout, + % to control” value [2, 13] of the same molecule?
The value was 14%.

What about the “Mass, dry, root” value [2, 13] of the same molecule?
The value was 0.22 g/100 plantlings.

And the “Mass, dry, root, + % to control” value [2, 13]?
Its value is 10%.

What about the “Mass, dry, sprout” value [2, 13] of the same molecule?
Its value is 0.30 g/100 plantlings.

What about the “Mass, dry, sprout, + % to control” value [2, 13] of the same molecule?
Its value is 15%.

What about the “Mass, wet, root” value [2, 13] of the same molecule?
The value was 1.10 g/100 plantlings.

And the “Mass, wet, root, + % to control” value [2, 13]?
Its value is 21%.

And the “Mass, wet, sprout” value [2, 13]?
The value was 1.81 g/100 plantlings.

What about the “Mass, wet, sprout, + % to control” value [2, 13] of the same molecule?
The value was 10%.

What about the “Length, root” value [2, 14] of the same molecule?
The value was 5.8 cm.

What about the “Length, root, + % to control” value [2, 14] of the same molecule?
Its value is 11.5%.

And the “Length, sprout” value [2, 14]?
The value was 2.6 cm.

And the “Length, sprout, + % to control” value [2, 14]?
Its value is 24%.

What about the “Mass, dry, root” value [2, 14] of the same molecule?
The value was 0.23 g/100 plantlings.

What about the “Mass, dry, root, + % to control” value [2, 14] of the same molecule?
The value was 15%.

And the “Mass, dry, sprout” value [2, 14]?
Its value is 0.31 g/100 plantlings.

And the “Mass, dry, sprout, + % to control” value [2, 14]?
The value was 19%.

And the “Mass, wet, root” value [2, 14]?
Its value is 1.14 g/100 plantlings.

And the “Mass, wet, root, + % to control” value [2, 14]?
Its value is 25%.

What about the “Mass, wet, sprout” value [2, 14] of the same molecule?
Its value is 1.89 g/100 plantlings.

What about the “Mass, wet, sprout, + % to control” value [2, 14] of the same molecule?
Its value is 15%.

What about the “Length, root” value [2, 15] of the same molecule?
Its value is 6.0 cm.

What about the “Length, root, + % to control” value [2, 15] of the same molecule?
The value was 15%.

And the “Length, sprout” value [2, 15]?
The value was 2.8 cm.

What about the “Length, sprout, + % to control” value [2, 15] of the same molecule?
Its value is 33%.

What about the “Mass, dry, root” value [2, 15] of the same molecule?
Its value is 0.25 g/100 plantlings.

And the “Mass, dry, root, + % to control” value [2, 15]?
The value was 25%.

What about the “Mass, dry, sprout” value [2, 15] of the same molecule?
The value was 0.33 g/100 plantlings.

And the “Mass, dry, sprout, + % to control” value [2, 15]?
The value was 27%.

What about the “Mass, wet, root” value [2, 15] of the same molecule?
Its value is 1.17 g/100 plantlings.

And the “Mass, wet, root, + % to control” value [2, 15]?
The value was 28.5%.

And the “Mass, wet, sprout” value [2, 15]?
Its value is 2.00 g/100 plantlings.

What about the “Mass, wet, sprout, + % to control” value [2, 15] of the same molecule?
The value was 22%.

What about the “Length, root” value [2, 16] of the same molecule?
The value was 6.3 cm.

What about the “Length, root, + % to control” value [2, 16] of the same molecule?
The value was 21%.

What about the “Length, sprout” value [2, 16] of the same molecule?
Its value is 3.5 cm.

What about the “Length, sprout, + % to control” value [2, 16] of the same molecule?
The value was 58%.

What about the “Mass, dry, root” value [2, 16] of the same molecule?
The value was 0.27 g/100 plantlings.

What about the “Mass, dry, root, + % to control” value [2, 16] of the same molecule?
The value was 35%.

What about the “Mass, dry, sprout” value [2, 16] of the same molecule?
The value was 0.35 g/100 plantlings.

And the “Mass, dry, sprout, + % to control” value [2, 16]?
The value was 35%.

And the “Mass, wet, root” value [2, 16]?
The value was 1.26 g/100 plantlings.

What about the “Mass, wet, root, + % to control” value [2, 16] of the same molecule?
Its value is 38%.

What about the “Mass, wet, sprout” value [2, 16] of the same molecule?
Its value is 2.18 g/100 plantlings.

What about the “Mass, wet, sprout, + % to control” value [2, 16] of the same molecule?
The value was 33%.

And the “Length, root” value [2, 17]?
Its value is 6.4 cm.

And the “Length, root, + % to control” value [2, 17]?
Its value is 23%.

And the “Length, sprout” value [2, 17]?
Its value is 4.0 cm.

And the “Length, sprout, + % to control” value [2, 17]?
The value was 90%.

What about the “Mass, dry, root” value [2, 17] of the same molecule?
The value was 0.30 g/100 plantlings.

And the “Mass, dry, root, + % to control” value [2, 17]?
The value was 50%.

What about the “Mass, dry, sprout” value [2, 17] of the same molecule?
The value was 0.39 g/100 plantlings.

And the “Mass, dry, sprout, + % to control” value [2, 17]?
The value was 50%.

What about the “Mass, wet, root” value [2, 17] of the same molecule?
Its value is 1.35 g/100 plantlings.

And the “Mass, wet, root, + % to control” value [2, 17]?
Its value is 48%.

And the “Mass, wet, sprout” value [2, 17]?
Its value is 2.30 g/100 plantlings.

And the “Mass, wet, sprout, + % to control” value [2, 17]?
The value was 40%.

And the “Length, root” value [2, 18]?
The value was 6.2 cm.

And the “Length, root, + % to control” value [2, 18]?
The value was 19%.

And the “Length, sprout” value [2, 18]?
Its value is 3.6 cm.

What about the “Length, sprout, + % to control” value [2, 18] of the same molecule?
The value was 71%.

And the “Mass, dry, root” value [2, 18]?
Its value is 0.26 g/100 plantlings.

What about the “Mass, dry, root, + % to control” value [2, 18] of the same molecule?
The value was 30%.

And the “Mass, dry, sprout” value [2, 18]?
The value was 0.33 g/100 plantlings.

What about the “Mass, dry, sprout, + % to control” value [2, 18] of the same molecule?
The value was 27%.

What about the “Mass, wet, root” value [2, 18] of the same molecule?
The value was 1.18 g/100 plantlings.

And the “Mass, wet, root, + % to control” value [2, 18]?
Its value is 30%.

What about the “Mass, wet, sprout” value [2, 18] of the same molecule?
Its value is 2.23 g/100 plantlings.

What about the “Mass, wet, sprout, + % to control” value [2, 18] of the same molecule?
The value was 36%.

What about the “dry mass of the roots increased by” value [2, 19] of the same molecule?
The value was 50%.

And the “dry mass of the sprouts increased by” value [2, 19]?
The value was 50%.

And the “length of the root increased by” value [2, 19]?
Its value is 23%.

What about the “length of the sprout increased by” value [2, 19] of the same molecule?
Its value is 90%.

And the “wet mass of the roots increased by” value [2, 19]?
Its value is 48%.

What about the “wet mass of the sprouts increased by” value [2, 19] of the same molecule?
Its value is 40%.
